The pIC50 is the negative decadic logarithm of the IC50, by convention in mol/L.

pIC50: −log10 of the molar value.

The assay deals with Factor D (Homo sapiens, UniProt P00746). The experiment in a line: Factor D esterolytic assay. It is filed as biochemical. As to conditions: substrate Z-Lys-SBzl 1.29 mM, 100 mM HEPES, 500 mM NaCl, pH 7.5, 10% DMSO, tested a minimum of three times. The method, then: The IC50 value of a compound (i.e., the concentration of the compound that inhibits 50% of the enzymatic activity) was calculated according to the procedure reported in U.S. Pat. No. 6,653,340 B1, e.g., column 74 (incorporated by reference).
Sequence of Factor D (P00746 26-253): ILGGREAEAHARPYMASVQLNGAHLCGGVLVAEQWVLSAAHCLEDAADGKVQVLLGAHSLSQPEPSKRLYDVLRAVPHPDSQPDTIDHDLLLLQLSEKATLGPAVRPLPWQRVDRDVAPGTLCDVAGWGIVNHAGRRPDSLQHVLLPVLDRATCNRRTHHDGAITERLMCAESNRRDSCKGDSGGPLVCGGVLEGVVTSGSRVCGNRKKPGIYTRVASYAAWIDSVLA
Specifically, the compounds were dissolved in a stock solution of DMSO at 10.0 or 100 mM. A portion of this stock solution was added to assay buffer in a final volume of 50 μL. Controls included buffer alone and enzyme solutions to which DMSO was added. Substrate was added to the reaction wells immediately or after incubation at room temperature. The reaction rates were measured spectrophotometrically by the generation of product at 405 nm for 600 sec. Background absorbance at 690 nm was measured and subtracted from the absorbance at 405 nm for each well.
The reaction rate for enzyme alone was compared to the rate of enzyme in the presence of inhibitor and the percent inhibition was calculated as shown below: […]
An established esterolytic assay for the measurement of Factor D activity and inhibition of Factor D activity was used (Kam, C. M.; McRae, B. J.; Harper, J. W.; Niemann, M. A.; Volanakis, J. E.; Powers, J. C. Human complement proteins D, C2, and B Active site mapping with peptide thioester substrates. J Biol. Chem. 1987, 262, 3444-3451). For this assay Z-Lys-SBzl, 1.29 mM (Kim, S.; Narayana, S. V. L; Volanakis, J. E. Mutational analysis of the substrate binding site of human complement Factor D. Biochemistry. 1994, 33, 14393-14399.) was used as the substrate for Factor D ([…]). Hydrolysis of this compound by Factor D liberated a free sulfhydryl group which is then reacted with 5,5′-dithiobis(2nitrobenzoic acid) producing an intense yellow color (Habeeb, A. F. S. A. Reaction of protein sulfhydryl groups with Ellman's Reagent. Methods in Enzymol. 1976, 25, 457-464). The assays were performed in 96 well microtiter plates and rates of hydrolysis were monitored at 405 nm on a Biotek Synergy H1 plate reader. Hydrolysis rates were reported as change in mOD/min. The assay was conducted in 100 mM HEPES, 500 mM NaCl, pH 7.5 containing 10% DMSO in a final volume of 50 μL per well.
An IC50, a compound concentration which inhibits 50% of the enzymatic activity, was calculated. Compounds in the examples were tested a minimum of three times.
As to `CCC(N)c1cccc(-c2cc(COc3ccccc3CC(=O)O)cc3ccoc23)c1` (centres unmarked) [Compound 2f, 2-(2-((7-(3-(1-aminopropyl)phenyl)benzofuran-5-yl)methoxy)phenyl)acetic acid], the negative-log IC50 (pIC50) is over 6.00. The same measure for `CCc1ccc(CC(=O)O)c(OCc2cc(-c3ccnc(CN)c3F)c3oc(F)cc3c2)c1` [Compound 59i, 2-(2-((7-(2-(aminomethyl)-3-fluoropyridin-4-yl)-2-fluorobenzofuran-5-yl)methoxy)-4-ethylphenyl)acetic acid]: over 6.00; for `Cn1ccc(COc2c(COc3ccccc3CC(=O)O)cc(-c3cccc(CN)c3)c3occc23)n1` [Compound 79g, 2-(2-((7-(3-(aminomethyl)phenyl)-4-((1-methyl-1H-pyrazol-3-yl)methoxy)benzofuran-5-yl)methoxy)phenyl)acetic acid]: over 6.00; for `NCc1cccc(-c2cc(COc3ccccc3CC(=O)O)c(OCc3ccncc3)c3ccoc23)c1` [Compound 80g, 2-(2-((7-(3-(aminomethyl)phenyl)-4-(pyridin-4-ylmethoxy)benzofuran-5-yl)methoxy)phenyl)acetic acid]: over 6.00.

`CC(Oc1ccccc1CC(=O)O)c1cc(-c2cccc(CN)c2)c2occc2c1` (centres unmarked) [Compound 77e, 2-(2-(1-(7-(3-(aminomethyl)phenyl)benzofuran-5-yl)ethoxy)phenyl)acetic acid]: the pIC50 was over 6.00.

As to `NCc1cc(-c2cc(COc3ccc(F)cc3CC(=O)O)cc3cc(F)oc23)ccn1` [Compound 73c, 2-(2-((7-(2-(aminomethyl)pyridin-4-yl)-2-fluorobenzofuran-5-yl)methoxy)-5-fluorophenyl)acetic acid], the pIC50 was over 6.00. To `CC(C)CC(=O)NCc1ccc(CC(=O)O)c(OCc2cc(-c3cccc(CN)c3)c3occc3c2)c1` [Compound 28c, 2-(2-((7-(3-(aminomethyl)phenyl)benzofuran-5-yl)methoxy)-4-((3-methylbutanamido)methyl)phenyl)acetic acid] belongs over 6.00; to `NCc1cccc(-c2cc(COc3cc(C(F)(F)F)ccc3CC(=O)O)cc3ccoc23)c1F` [Compound 58b, 2-(2-((7-(3-(aminomethyl)-2-fluorophenyl)benzofuran-5-yl)methoxy)-4-(trifluoromethyl)phenyl)acetic acid], over 6.00.

As for `COc1ccc(CC(=O)O)c(OCc2cc(-c3ccnc(CN)c3)c3occc3c2F)c1` [Compound 43d, 2-(2-((7-(2-(aminomethyl)pyridin-4-yl)-4-fluorobenzofuran-5-yl)methoxy)-4-methoxyphenyl)acetic acid], the negative logarithm of the IC50 (pIC50) is over 6.00.

`NCc1nccc(-c2cc(COc3ccccc3CC(=O)O)cc3c2OCC3)c1F` [Compound 40g, 2-(2-((7-(2-(aminomethyl)-3-fluoropyridin-4-yl)-2,3-dihydrobenzofuran-5-yl)methoxy)phenyl)acetic acid]: the negative-log IC50 (pIC50) is over 6.00. As for `NCc1csc(-c2cc(COc3ccccc3CC(=O)O)cc3ccoc23)n1` [Compound 6e, 2-(2-((7-(4-(aminomethyl)thiazol-2-yl)benzofuran-5-yl)methoxy)phenyl)acetic acid], the pIC50 was over 6.00. The same measure for `COc1c(COc2ccccc2CC(=O)O)cc(-c2cccc(CN)c2)c2occc12` [Compound 67f, 2-(2-((7-(3-(aminomethyl)phenyl)-4-methoxybenzofuran-5-yl)methoxy)phenyl)acetic acid]: over 6.00; for `CC(=O)NCc1ccc(CC(=O)O)c(OCc2cc(-c3cccc(CN)c3)c3occc3c2)c1` [Compound 30c, 2-(4-(acetamidomethyl)-2-((7-(3-(aminomethyl)phenyl)benzofuran-5-yl)methoxy)phenyl)acetic acid]: over 6.00; for `CCCCCCC(=O)NCc1ccc(CC(=O)O)c(OCc2cc(-c3cccc(CN)c3)c3occc3c2)c1` [Compound 26f, 2-(2-((7-(3-(aminomethyl)phenyl)benzofuran-5-yl)methoxy)-4-(heptanamidomethyl)phenyl)acetic acid]: over 6.00. Consider `COC(=O)Nc1ccc(CC(=O)O)c(OCc2cc(-c3cccc(CN)c3)c3occc3c2)c1` [Compound 19i, 2-(2-((7-(3-(aminomethyl)phenyl)benzofuran-5-yl)methoxy)-4-((methoxycarbonyl)amino)phenyl)acetic acid], for which the pIC50 was over 6.00.

For the molecule `NCc1cccc(-c2cc(COc3ccccc3C(NC(=O)C3CC3)C(=O)O)cc3ccoc23)c1` (single isomer, unassigned; (+)) [Compound 52f, (+)-2-(2-((7-(3-(aminomethyl)phenyl)benzofuran-5-yl)methoxy)phenyl)-2-(cyclopropanecarboxamido)acetic acid], the pIC50 is over 6.00. For the molecule `NCc1cccc(-c2cc(COc3cc(CNP(=O)(OCc4ccccc4)OCc4ccccc4)ccc3CC(=O)O)cc3ccoc23)c1` [Compound 34c, 2-(2-((7-(3-(aminomethyl)phenyl)benzofuran-5-yl)methoxy)-4-((bis(benzyloxy)phosphorylamino)methyl)phenyl)acetic acid], the pIC50 was over 6.00. Turning to `CCNCc1cccc(-c2cc(COc3ccccc3CC(=O)O)cc3ccoc23)c1` [Compound 21c, 2-(2-((7-(3-((ethylamino)methyl)phenyl)benzofuran-5-yl)methoxy)phenyl)acetic acid], the negative logarithm of the IC50 (pIC50) is over 6.00.

As for `CC(O)c1ccc(CC(=O)O)c(OCc2cc(-c3cccc(CN)c3)c3occc3c2)c1` (centres unmarked) [Compound 72e, 2-(2-((7-(3-(aminomethyl)phenyl)benzofuran-5-yl)methoxy)-4-(1-hydroxyethyl)phenyl)acetic acid], the pIC50 was over 6.00.

Take `NCc1cccc(-c2cc(COc3cc(C(=O)O)ccc3CC(=O)O)cc3ccoc23)c1` [Compound 9d, 3-((7-(3-(aminomethyl)phenyl)benzofuran-5-yl)methoxy)-4-(carboxymethyl)benzoic acid]: the pIC50 is over 6.00.

Regarding `CC(=O)OCc1cc2cc(COc3ccccc3CC(=O)O)cc(-c3cccc(CN)c3)c2o1` [Compound 23h, 2-(2-((2-(acetoxymethyl)-7-(3-(aminomethyl)phenyl)benzofuran-5-yl)methoxy)phenyl)acetic acid], the pIC50 was over 6.00. Consider `CC(=O)c1ccc(CC(=O)O)c(OCc2cc(-c3cccc(CN)c3)c3occc3c2F)c1` [Compound 48g, 2-(4-acetyl-2-((7-(3-(aminomethyl)phenyl)-4-fluorobenzofuran-5-yl)methoxy)phenyl)acetic acid], for which the negative logarithm of the IC50 (pIC50) was over 6.00.

In the case of `NC(CF)c1cccc(-c2cc(COc3cc(F)ccc3CC(=O)O)cc3ccoc23)c1` (single isomer, unassigned; (+)) [Compound 15f, (+)-2-(2-((7-(3-(1-amino-2-fluoroethyl)phenyl)benzofuran-5-yl)methoxy)-4-fluorophenyl)acetic acid], the negative logarithm of the IC50 (pIC50) was over 6.00. To `CC(C)OC(=O)NCc1ccc(CC(=O)O)c(OCc2cc(-c3cccc(CN)c3)c3occc3c2)c1` [Compound 27c, 2-(2-((7-(3-(aminomethyl)phenyl)benzofuran-5-yl)methoxy)-4-((isopropoxycarbonylamino)methyl)phenyl)acetic acid] belongs over 6.00; to `CC(C)(C)OC(=O)Cc1ccccc1OCc1cc(-c2ccnc(CN)c2F)c2occc2c1` [Compound 39e, tert-butyl 2-(2-((7-(2-(aminomethyl)-3-fluoropyridin-4-yl)benzofuran-5-yl)methoxy)phenyl)acetate], 5.00 to 6.00; to `COc1ccc(CC(=O)O)c(OCc2cc(-c3cccc(CN)c3F)c3occc3c2F)c1` [Compound 42e, 2-(2-((7-(3-(aminomethyl)-2-fluorophenyl)-4-fluorobenzofuran-5-yl)methoxy)-4-methoxyphenyl)acetic acid], over 6.00. `CC(=O)c1ccc(CC(=O)O)c(OCc2cc(-c3ccnc(CN)c3F)c3oc(F)cc3c2)c1` [Compound 75d, 2-(4-acetyl-2-((7-(2-(aminomethyl)-3-fluoropyridin-4-yl)-2-fluorobenzofuran-5-yl)methoxy)phenyl)acetic acid]: the pIC50 is over 6.00. For the molecule `Cc1ccc(CC(=O)O)c(OCc2cc(-c3ccnc(CN)c3)c3occc3c2)c1C` [Compound 22h, 2-(2-((7-(2-(aminomethyl)pyridin-4-yl)benzofuran-5-yl)methoxy)-3,4-dimethylphenyl)acetic acid], the negative logarithm of the IC50 (pIC50) is over 6.00. As for `CC(=O)c1ccc(CC(=O)O)c(OCc2cc(-c3cccc(CN)c3F)c3oc(F)cc3c2)c1` [Compound 76e, 2-(4-acetyl-2-((7-(3-(aminomethyl)-2-fluorophenyl)-2-fluorobenzofuran-5-yl)methoxy)phenyl)acetic acid], the pIC50 was over 6.00.

For the origin of these results see patent US20250275991A1, “ORAL COMPLEMENT FACTOR D INHIBITORS” (BioCryst Pharmaceuticals, Inc, priority 2019, published 2025).
